In patent US7183277B2, “Carboxylic acid amides” (Merck Patent GmbH, priority 2002, dated 2007):
Counter-ions that a name gives are not always drawn.

Experiments:
FXa = FXa (Homo sapiens, UniProt P00742); assay: Factor Xa inhibition (FXa-IC50); format: biochemical
Excerpt: The inhibition of factor Xa by the compounds according to the invention and the measurement of the anticoagulant and antithrombotic activity can be determined by conventional in-vitro or in-vivo methods. A suitable method is described, for example, by J. Hauptmann et al. in Thrombosis and Haemostasis 1990, 63, 220–223.
The inhibition of factor Xa can be measured, for example, by the method of T. Hara et al. in Thromb. Haemostas. 1994, 71, 314–319.

TF/FVIIa = TF/FVIIa (Homo sapiens, UniProt P08709); assay: TF/FVIIa inhibition (TF/FVIIa-IC50); format: biochemical
Chain of TF/FVIIa (P08709 213-466 limits assumed): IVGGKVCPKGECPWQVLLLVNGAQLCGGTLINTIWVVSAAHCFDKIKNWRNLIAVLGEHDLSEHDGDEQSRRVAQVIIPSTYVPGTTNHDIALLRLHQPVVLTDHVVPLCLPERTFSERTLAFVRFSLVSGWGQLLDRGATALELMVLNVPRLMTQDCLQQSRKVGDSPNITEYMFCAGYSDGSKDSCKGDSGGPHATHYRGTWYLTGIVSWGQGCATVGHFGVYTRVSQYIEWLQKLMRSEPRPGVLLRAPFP
Chain of TF/FVIIa (P08709 61-212 partner limits assumed): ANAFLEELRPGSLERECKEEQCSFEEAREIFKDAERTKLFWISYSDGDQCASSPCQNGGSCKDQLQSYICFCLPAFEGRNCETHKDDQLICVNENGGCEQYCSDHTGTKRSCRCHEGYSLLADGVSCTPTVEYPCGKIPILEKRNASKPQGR
Chain of TF/FVIIa (P13726 33-295 partner): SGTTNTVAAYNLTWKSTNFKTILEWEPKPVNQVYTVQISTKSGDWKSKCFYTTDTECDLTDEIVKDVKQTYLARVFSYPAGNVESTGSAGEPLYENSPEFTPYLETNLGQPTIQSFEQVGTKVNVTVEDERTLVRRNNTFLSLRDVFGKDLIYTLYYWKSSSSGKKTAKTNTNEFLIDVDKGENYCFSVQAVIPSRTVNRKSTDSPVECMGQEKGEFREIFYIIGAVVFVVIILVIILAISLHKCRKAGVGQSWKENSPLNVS
Excerpt: The inhibition of factor VIIa by the compounds according to the invention and the measurement of the anticoagulant and antithrombotic activity can be determined by conventional in-vitro or in-vivo methods. A conventional method for the measurement of the inhibition of factor VIIa is described, for example, by H. F. Ronning et al. in Thrombosis Research 1996, 84, 73–81.

Chain of FXa (P00742 235-488 limits assumed): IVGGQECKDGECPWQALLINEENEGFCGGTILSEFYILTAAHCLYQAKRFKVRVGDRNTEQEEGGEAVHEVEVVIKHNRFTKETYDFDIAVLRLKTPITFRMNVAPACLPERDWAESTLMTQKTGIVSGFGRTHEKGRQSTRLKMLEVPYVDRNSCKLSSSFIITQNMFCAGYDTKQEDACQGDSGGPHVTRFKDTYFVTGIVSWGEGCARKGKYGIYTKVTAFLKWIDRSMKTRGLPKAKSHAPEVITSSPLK
Chain of FXa (P00742 41-179 partner limits assumed): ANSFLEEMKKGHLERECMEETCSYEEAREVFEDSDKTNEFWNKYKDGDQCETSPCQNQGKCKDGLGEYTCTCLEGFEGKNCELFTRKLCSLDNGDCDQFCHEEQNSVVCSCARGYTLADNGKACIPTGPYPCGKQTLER

| IC50 (FXa) [nM] | IC50 (TF/FVIIa) [nM] | Structure (SMILES) |
| --- | --- | --- |
| 680 | 490 | Cc1cc(NC(=O)[C@H](NC(=O)Nc2ccc(Cl)cc2)c2ccccc2)ccc1N1CCCC1=N [BA, (R)-2-[3-(4-chlorophenyl)ureido]-N-[4-(2-iminopyrrolidin-1-yl)-3-methylphenyl]-2-phenylacetamide, hydrochloride] |
| 58 | 99 | N=C1CCCCN1c1ccc(NC(=O)[C@H](OC(=O)Nc2ccc(Cl)cc2)c2ccccc2)cc1 [AB, (R)-2-[N-(4-chlorophenyl)carbamoyloxy]-N-[4-(2-iminopiperidin-1-yl)phenyl]-2-phenylacetamid, hydrochloride] |
| 220 | 290 | CON=C1CCCCN1c1ccc(NC(=O)[C@H](OC(=O)Nc2ccc(Cl)cc2)c2ccccc2)cc1 [AA, (R)-2-[N-(4-chlorophenyl)carbamoyloxy]-N-[4-(2-methoxyiminopiperidin-1-yl)phenyl]-2-phenylacetamide] |
| 54 | – | N#CN=C1NCCN1c1ccc(NC(=O)[C@@H](NC(=O)Nc2ccc(Cl)cc2)c2cccs2)cc1 [CA, (R)-2-[3-(4-chlorophenyl)ureido]-N-[4-(2-cyaniminoimidazolidin-1-yl)phenyl]-2-thiophen-2-ylacetamide] |
